Assay results taken from US20050171358A1 (priority 2002, published 2005).

Tests used:
[1] = test system: Colletotrichum lagenarium; details: 200 ppm spray on cucumber (3 leaf stage), inoculated next day; lesion numbers on first and second leaves after 7 days in green house, graded by Table 5
[2] = test system: Pyricularia oryzae; assay type: in vivo; details: 200 ppm spray on rice (Koshihikari, 3 leaf stage), inoculated next day; lesion numbers on third leaves after 7 days in green house, graded by Table 5

Structure (SMILES) | Evaluation (effect for cucumber anthracnose) [1] | Evaluation (effect for rice blast) [2]
O=C(NCc1cc(-c2ccccc2)no1)Nc1ccccc1Cl [II-48, 1-[(3-phenyl-5-isoxazolyl)methyl]-3-(2-chlorophenyl)urea] | 4 (1˜5) | 3 (6˜10)
O=C(NCc1cc(-c2ccccc2)no1)Nc1cccnc1 [II-100, 1-[(3-phenyl-5-isoxazolyl)methyl]-3-(3-pyridyl)urea] | 4 (1˜5) | 4 (1˜5)
O=C(NCc1cc(COc2ccccc2)no1)NC1CCCCC1 [II-104, 3-(3-phenoxymethyl-5-isoxazolyl)methyl-1-cyclohexylurea] | 5 (0) | 5 (0)
O=C(NCc1cc(COc2ccccc2)no1)NC1CCCC1 [II-106, 3-(3-phenoxymethyl-5-isoxazolyl)methyl-1-cyclopentylurea] | 2 (11˜20) | 3 (6˜10)
Cc1cc(CNC(=O)NC2CCCCC2)on1 [II-108, 3-(3-methyl-5-isoxazolyl)methyl-1-cyclohexylurea] | 2 (11˜20) | 1 (21˜41)
CNC(=O)c1cc(CNC(=O)NC2CCCCC2)on1 [II-110, 3-(3-methylaminocarbonyl-5-isoxazolyl)methyl-1-cyclohexylurea] | 1 (21˜41) | 1 (21˜41)
O=C(NCc1cc(COC2=CC(=O)C3CCC2C3)no1)NC1CCCCC1 (stereo not drawn) [II-112, 3-[3-(bicyclo[3.2.1]oct-2-en-4-on-2-yl)oxymethyl-5-isoxazolyl]methyl-1-cyclohexylurea] | 3 (6˜10) | 3 (6˜10)
N#CCc1cc(CNC(=O)NC2CCCCC2)on1 [II-113, 3-(3-cyanomethyl-5-isoxazolyl)methyl-1-cyclohexylurea] | 1 (21˜41) | 2 (11˜20)
CSCc1cc(CNC(=O)NC2CCCCC2)on1 [II-114, 3-(3-methylthiomethyl-5-isoxazolyl)methyl-1-cyclohexylurea] | 3 (6˜10) | 3 (6˜10)
CC(C)c1cc(CNC(=O)c2ccccc2)on1 [III-4, N-[(3-isopropyl-5-isoxazolyl)methyl]benzamide] | 4 (1˜5) | 3 (6˜10)
Cc1ccc(C(=O)NCc2cc(C(C)C)no2)cc1 [III-5, N-[(3-isopropyl-5-isoxazolyl)methyl]-4-methyl benzamide] | 4 (1˜5) | 4 (1˜5)
O=C(NCc1cc(C2CCCCC2)no1)c1ccccc1 [III-6, N-[(3-cyclohexyl-5-isoxazolyl)methyl]benzamide] | 4 (1˜5) | 5 (0)
Cc1ccc(-c2cc(CNC(=O)c3ccccc3)on2)cc1 [III-10, N-{[3-(4-tolyl)-5-isoxazolyl]methyl}benzamide] | 5 (0) | 5 (0)
Cc1ccc(C(=O)NCc2cc(-c3ccc(C)cc3)no2)cc1 [III-11, N-{[3-(4-tolyl)-5-isoxazolyl]methyl}-4-methylbenzamide] | 3 (6˜10) | 5 (0)
COc1ccc(C(=O)NCc2cc(-c3ccc(C)cc3)no2)cc1 [III-12, N-{[3-(4-tolyl)-5-isoxazolyl]methyl}-4-methoxybenzamide] | 5 (0) | 5 (0)
COc1ccc(C(=O)NCc2cc(-c3ccc(C(C)(C)C)cc3)no2)cc1 [III-14, N-{[3-(4-t-butylphenyl)-5-isoxazolyl]methyl}-4-methoxybenzamide] | 3 (6˜10) | 5 (0)
COc1ccc(-c2cc(CNC(=O)c3ccccc3)on2)cc1 [III-17, N-{[3-(4-methoxyphenyl)-5-isoxazolyl]methyl}benzamide] | 5 (0) | 5 (0)
COc1ccc(C(=O)NCc2cc(-c3ccc(OC)cc3)no2)cc1 [III-18, N-{[3-(4-methoxyphenyl)-5-isoxazolyl]methyl}-4-methoxy benzamide] | 5 (0) | 5 (0)

Structure (SMILES) | Evaluation (effect for cucumber anthracnose) [1] | Evaluation (effect for rice blast) [2]
COc1ccc(-c2cc(CNC(=O)c3ccc(C)cc3)on2)cc1 [III-19, N-{[3-(4-methoxyphenyl)-5-isoxazolyl]methyl}-4-methylbenzamide] | 5 (0) | 5 (0)
Cc1ccc(C(=O)NCc2cc(-c3ccc(S(C)(=O)=O)cc3)no2)cc1 [III-26, N-{[3-(4-mesylphenyl)-5-isoxazolyl]methyl}-4-methylbenzamide] | 5 (0) | 5 (0)
Cc1ccc(C(=O)NCc2cc(-c3ccc([S+](C)[O-])cc3)no2)cc1 (stereo not drawn) [III-27, N-{[3-(4-methanesulfinylphenyl)-5-isoxazolyl]methyl}-4-methylbenzamide] | 5 (0) | 5 (0)
CSc1ccc(-c2cc(CNC(=O)c3ccc(C)cc3)on2)cc1 [III-28, N-{[3-(4-methylthiophenyl)-5-isoxazolyl]methyl}-4-methylbenzamide] | 4 (1˜5) | 5 (0)
Cc1ccc(C(=O)NCc2cc(-c3ccc(F)cc3)no2)cc1 [III-31, N-{[3-(4-fluorophenyl)-5-isoxazolyl]methyl}-4-methylbenzamide] | 5 (0) | 5 (0)
O=C(NCc1cc(-c2ccc(Cl)cc2)no1)c1ccccc1 [III-34, N-{[3-(4-chlorophenyl)-5-isoxazolyl]methyl}benzamide] | 5 (0) | 5 (0)
O=C(NCc1cc(-c2ccc(Br)cc2)no1)c1ccccc1 [III-37, N-{[3-(4-bromophenyl)-5-isoxazolyl]methyl}benzamide] | 3 (6˜10) | 5 (0)
O=C(NCc1cc(-c2ccc(C(F)(F)F)cc2)no1)c1ccccc1 [III-40, N-{[3-(4-trifluoromethylphenyl)-5-isoxazolyl]methyl}benzamide] | 5 (0) | 5 (0)
Cc1ccc(C(=O)NCc2cc(-c3ccc(C#N)cc3)no2)cc1 [III-43, N-{[3-(4-cyanophenyl)-5-isoxazolyl]methyl}-4-methylbenzamide] | 4 (1˜5) | 5 (0)
COc1ccc(C(=O)NCc2cc(-c3ccc(OC(F)(F)F)cc3)no2)cc1 [III-49, N-{[3-(4-trifluoromethoxyphenyl)-5-isoxazolyl]methyl}-4-methoxybenzamide] | 5 (0) | 5 (0)
Cc1ccc(C(=O)NCc2cc(-c3ccc(C(=O)O)cc3)no2)cc1 [III-51, N-{[3-(4-carboxyphenyl)-5-isoxazolyl]methyl}-4-methylbenzamide] | 4 (1˜5) | 5 (0)
COC(=O)c1ccc(-c2cc(CNC(=O)c3ccc(C)cc3)on2)cc1 [III-52, N-{[3-(4-methoxycarbonylphenyl)-5-isoxazolyl]methyl}-4-methylbenzamide] | 5 (0) | 5 (0)
Cc1ccc(C(=O)NCc2cc(-c3ccc(N(C)C)cc3)no2)cc1 [III-61, N-{[3-(4-dimethylaminophenyl)-5-isoxazolyl]methyl}-4-methylbenzamide] | 4 (1˜5) | 5 (0)
Cc1ccc(C(=O)NCc2cc(-c3ccc(C)cc3C)no2)cc1 [III-65, N-{[3-(2,4-dimethylphenyl)-5-isoxazolyl]methyl}-4-methylbenzamide] | 5 (0) | 5 (0)
COc1ccc(-c2cc(CNC(=O)c3ccc(C)cc3)on2)c(OC)c1 [III-66, N-{[3-(2,4-dimethoxyphenyl)-5-isoxazolyl]methyl}-4-methylbenzamide] | 5 (0) | 5 (0)
COc1ccc(-c2cc(CNC(=O)c3ccccc3)on2)cc1OC [III-67, N-{[3-(3,4-dimethoxyphenyl)-5-isoxazolyl]methyl}benzamide] | 5 (0) | 5 (0)
COc1ccc(-c2cc(CNC(=O)c3ccc(C)cc3)on2)cc1OC [III-68, N-{[3-(3,4-dimethoxyphenyl)-5-isoxazolyl]methyl}-4-methylbenzamide] | 5 (0) | 5 (0)
Cc1ccc(C(=O)NCc2cc(-c3ccc(C)c(F)c3)no2)cc1 [III-73, N-{[3-(3-fluoro-4-methylphenyl)-5-isoxazolyl]methyl}-4-methylbenzamide] | 4 (1˜5) | 5 (0)
